What was measured:
Details in all cases: 72 h
Caco-2 [1] = assay: cell viability relative to DMSO; higher = less toxic
Calu-3 [2] = assay: as above
HepG2 [3] = assay: as above
U2OS [4] = assay: as above
Vero E6 [5] = assay: as above
Caco-2 [6] = assay: relative viability EC50 (midpoint between 100% and the lowest measured viability); higher = less toxic
Calu-3 [7] = assay: as above
U2OS [8] = assay: as above
Vero E6 [9] = assay: as above
Caco-2 [10] = assay: drug sensitivity score (DSS) for viability; higher = more toxic; extreme values may be limits of the assay
Calu-3 [11] = assay: as above
HepG2 [12] = assay: as above
U2OS [13] = assay: as above
Vero E6 [14] = assay: as above

| SMILES | cell viability (Caco-2 [1]; 1 nM) | cell viability (Caco-2 [1]; 10 nM) | cell viability (Caco-2 [1]; 100 nM) | cell viability (Caco-2 [1]; 1000 nM) | cell viability (Caco-2 [1]; 10000 nM) | cell viability (Calu-3 [2]; 1 nM) | cell viability (Calu-3 [2]; 10 nM) | cell viability (Calu-3 [2]; 100 nM) | cell viability (Calu-3 [2]; 1000 nM) | cell viability (Calu-3 [2]; 10000 nM) | cell viability (HepG2 [3]; 1 nM) | cell viability (HepG2 [3]; 10 nM) | cell viability (HepG2 [3]; 100 nM) | cell viability (HepG2 [3]; 1000 nM) | cell viability (HepG2 [3]; 10000 nM) | cell viability (U2OS [4]; 1 nM) | cell viability (U2OS [4]; 10 nM) | cell viability (U2OS [4]; 100 nM) | cell viability (U2OS [4]; 1000 nM) | cell viability (U2OS [4]; 10000 nM) | cell viability (Vero E6 [5]; 1 nM) | cell viability (Vero E6 [5]; 10 nM) | cell viability (Vero E6 [5]; 100 nM) | cell viability (Vero E6 [5]; 1000 nM) | cell viability (Vero E6 [5]; 10000 nM) | relative viability EC50 (Caco-2 [6]) | relative viability EC50 (Calu-3 [7]) | relative viability EC50 (U2OS [8]) | relative viability EC50 (Vero E6 [9]) | drug sensitivity score (Caco-2 [10]) | drug sensitivity score (Calu-3 [11]) | drug sensitivity score (HepG2 [12]) | drug sensitivity score (U2OS [13]) | drug sensitivity score (Vero E6 [14]) |
| --- | --- | --- | --- | --- | --- | --- | --- | --- | --- | --- | --- | --- | --- | --- | --- | --- | --- | --- | --- | --- | --- | --- | --- | --- | --- | --- | --- | --- | --- | --- | --- | --- | --- | --- |
| N=C(N)NN=C1C=CC(=NNC(N)=S)C=C1 [ambazone] | 88.4% | 94.9% | 94.6% | 91.2% | 92.7% | 105% | 95.8% | 94.1% | 98.2% | 118% | 97.1% | 95.3% | 102% | 83.4% | 63.2% | 95% | 94.8% | 97.9% | 99.3% | 95% | 90.9% | 95.1% | 102% | 100% | 103% | > 10 µM | > 10 µM | > 10 µM | > 10 µM | 0 | 0 | 3.9 | 0 | 0 |
| C1=C2CCCN[C@H]2[C@@H]2C[C@H]1[C@H]1CCCCN1C2 [aloperine] | 96.4% | 108% | 104% | 106% | 94.4% | 91.1% | 99.2% | 90.7% | 85% | 83.1% |  |  |  |  |  | 96.8% | 102% | 92.8% | 100% | 94.1% | 102% | 100% | 104% | 99.4% | 98.1% | > 10 µM | > 10 µM | > 10 µM | > 10 µM | 0 | 1.4 |  | 0 | 0 |
| CC(O)CN1CCN(CC(=O)[O-])CCN(CC(=O)[O-])CCN(CC(=O)[O-])CC1.[Gd+3] (stereo not drawn) [gadoteridol] | 103% | 110% | 96% | 142% | 92.1% | 101% | 91.2% | 95.3% | 102% | 96.1% |  |  |  |  |  | 93.2% | 103% | 98.5% | 99.1% | 103% | 94.7% | 93.1% | 110% | 93.1% | 105% | > 10 µM | > 10 µM | > 10 µM | > 10 µM | 0 | 0 |  | 0 | 0 |
| CC(C)(C(=O)O)c1ccc(C(O)CCCN2CCC(C(O)(c3ccccc3)c3ccccc3)CC2)cc1 (stereo not drawn) [fexofenadine] |  |  |  |  |  |  |  |  |  |  |  |  |  |  |  |  |  |  |  |  |  |  |  |  |  |  |  |  |  |  | 0 |  | 0 | 0 |
| CN(C)CCc1c[nH]c2ccc(CS(=O)(=O)N3CCCC3)cc12 [almotriptan] | 92.9% | 97.9% | 99.9% | 109% | 106% | 98.8% | 103% | 108% | 97.8% | 106% |  |  |  |  |  | 101% | 104% | 101% | 98.6% | 100% |  |  |  |  |  | > 10 µM | > 10 µM | > 10 µM |  | 0 | 0 |  | 0 |  |
| C=CC(=O)O [acrylate] |  |  |  |  |  |  |  |  |  |  |  |  |  |  |  |  |  |  |  |  |  |  |  |  |  |  |  |  |  |  | 0 | 0 | 0 | 0 |
| Cn1c(=O)c2c(ncn2CCOC(=O)C(C)(C)Oc2ccc(Cl)cc2)n(C)c1=O [etofylline-clofibrate] | 98% | 100% | 89.4% | 91.4% | 93.9% | 96.1% | 98.9% | 93.2% | 94.3% | 89.5% |  |  |  |  |  | 98% | 91.9% | 101% | 95.9% | 97.3% | 92.8% | 109% | 91.6% | 96.1% | 104% | > 10 µM | > 10 µM | > 10 µM | > 10 µM | 0.3 | 0 |  | 0 | 0 |
| CNC(=O)[C@H]1O[C@@H](n2cnc3c(NCc4cccc(I)c4)ncnc32)[C@H](O)[C@@H]1O [IB-MECA] | 112% | 96.2% | 99.8% | 105% | 93.3% | 96.3% | 98.3% | 93.4% | 109% | 85.3% | 107% | 68.7% | 98.3% | 68.8% | 88.8% | 101% | 105% | 102% | 106% | 95.8% | 103% | 97.1% | 99.8% | 97% | 102% | > 10 µM | > 10 µM | > 10 µM | > 10 µM | 0 | 0.1 | 3.3 | 0 | 0 |
| COCc1nnc(N2CC(Oc3ccc(F)cc3Cl)C2)n1-c1ccc(OC)nc1 | 88.5% | 105% | 102% | 105% | 97.5% | 92.8% | 103% | 101% | 104% | 113% |  |  |  |  |  | 93.3% | 93.6% | 95.6% | 103% | 97.4% | 97.8% | 93.1% | 101% | 90.9% | 106% | > 10 µM | > 10 µM | > 10 µM | > 10 µM | 0 | 0 |  | 0 | 0 |

Reference: the supplement of paper PMC13380429
